Assay results published in US11180495B2 (Abbisko Therapeutics Co., Ltd., priority 2017, dated 2021).
Like-named read-outs stand apart in the source and are kept apart here.

What was measured:
[1] = tested on: M-NFS-60 mouse myeloid leukemia lymphocytes; experiment: CSF-1R-related cell proliferation experiment (Cell Titer Glo); type: cell-based; conditions: 72 h, M-NFS-60 cells, 3 days, CTG
Experimental: Functional effects of compounds on cell proliferation were evaluated by using Cell Titer Glo (CTG) study in the present invention. M-NFS-60 mouse myeloid leukemia lymphocytes (cat. No. CCBJ078) from National Institutes For Food and Drug Control were cultured in the incubator under conditions of RPMI 1640 (Gibco, cat. No. 11875-119), 10% fetal bovine serum (Gibco, 10099-141), human 10 ng/mL M-CSF macrophage colony-stimulating factor (R&D, cat. No. MVN0915101), 37° C. and 5% CO2. Since ATP is an index for viable cell metabolism, CTG (Promega, #G7573) reagent is a homogeneous detection method for detecting the number of viable cells in the culture by quantifying ATP. Therefore, compound-mediated inhibition for cell proliferation/survival was evaluated by quantifying ATP in cells, and the specific experimental process was as follows: • 1. The cells were plated into a tissue-culture-medium-treated 96-well plate (Costar #3904) with 5,000 cells/well/80 μL fresh culture medium: • 2. 24 hours later, 10 μL culture medium containing testing compound with 10-fold of final concentration was added to each well; • 3. 10 μL of culture medium containing M-CSF with 10-fold of the final concentration was then added to each well: • 4. dosage effect was evaluated by testing the 3-fold serial dilutions of the compound; • 5. after the cells were incubated for 3 days at 37° C. and 5% CO2, the inhibition on cell survival was quantified after 50 μL of CTG was added and the luminescence assay was performed; • 6. the compound concentration leading to half maximal inhibitory (IC50) and the compound concentration leading to absolute half maximal inhibitory (Absolute IC50) were measured by a plate reader (M1000, Tecan) and a four-parameter curve fit in Graphpad Prism 7. D. CSF-1R-Related Cell Proliferation Experiment

CSF-1R = molecular target: T1, CSF-1R (Homo sapiens, UniProt P07333); experiment: CSF-1R in vitro biochemical kinase study (ADP-Glo assay); conditions: 3.95 nM CSF-1R, 500 μM ATP, 30° C. 60 min, read-out: Enzymatic experiment CSF-1R IC50
T1 construct: 3.95 nM of CSF-1R, 500 μM of ATP and 0.2 mg/mL of polypeptide
Experimental: In the present invention, the inhibitory activity of compounds against the CSF-1R activity was determined by using CSF-1R ADP-Glo assay. The compound-mediated inhibition effect was achieved by inhibiting the production of ADP from consumption of ATP, and the activities of compounds were evaluated by using the ADP-Glo kit (Promega, cat. No. V9101). The specific experimental process was as follows: • 1. The kinase reaction performed in the present invention was carried out in a 384-well plate (Perkinelmer, cat. No. 6007290), and 3.95 nM of CSF-1R, 500 μM of ATP and 0.2 mg/mL of polypeptide (Poly (Glu4, Try1), Sigma, cat. No. P0275) were respectively weighed and added to each well: • 2. following reagents were then added to each well to reach the final reaction system: 40 mM Tris, pH 7.5, 20 mM MgCl2, 0.01% Triton X-100, 0.1 mg/mL BSA, 2.5 mM DTT and 0.1% DMSO; • 3. the reaction was conducted at 30° C. for 60 min; • 4. then an equal volume of stop solution (ADP-Glo) was added to the kinase reaction system; • 5. the mixed solution was incubated at 25° C. for 60 min, and the kinase reaction was then terminated; • 6. a two-fold volume of detection reagent was then added to each well; • 7. the mixed solution was incubated at 25° C. for 30 min; • 8. the compound IC50 value was measured by using a plate reader (Tecan, M1000) and a four-parameter curve was generated in Graphpad Prism. B. KIT/PDGFRA In Vitro Biochemical Kinase Study • 1. Preparation of 1-fold kinase buffer and stop solution • 1.1 1-fold kinase buffer: 50 mM HEPES, pH 7.5, 0.0015% Brij-35. • 1.2 stop solution: 100 mM HEPES, pH 7.5, 0.015% Brij-35, 0.2% Coating Reagent #3 50 mM EDTA • 2. Preparation of compound solution • 2.1 Dilution of compound solution • 1) The final concentration of the compound solution was 40 μM. and the concentration of the prepared stock solution was 50 times of the final concentration, i.e., 2 mM. • 2) 80 μL of 100% DMSO was added to the second well of the 96-well plate, then 20 μL of 10 mM compound solution was added, and thereby 2 mM compound solution was prepared, 60 μL of 100% DMSO was added to other wells, 20 μL of compound was taken from the second well, added to the third well and diluted by 4 times. This serial 4-time dilution was conducted in sequence for the total of 10 concentrations. • 2.2 5-fold compound solution transferred to a reaction plate • 1) 10 μL of solution was taken from each well of the above 96-well plate and added to another 96-well plate, and 90 μL of kinase buffer was added. • 2) 5 μL of solution was taken from the above 96-well plate and added to a 384-well reaction plate. • 2.3 Kinase reaction • 1) KIT/PDGFRA kinase was added to the 1-fold kinase buffer solution to obtain a 2.5-fold kinase solution. • 2) FAM-labeled polypeptide and ATP were added to the 1-fold kinase buffer solution to obtain a 2.5-fold substrate solution. • 3) 10 μL of 2.5-fold kinase solution was added to the 384-well reaction plate, which already contained 5 μL of 5-fold compound in 10% DMSO. And the mixed solution was incubated at room temperature for 10 min. • 4) 10 μL of 2.5-fold substrate solution was added to the 384-well reaction plate. • 5) Kinase reaction and termination: the mixed solution was incubated at 28° C. for a certain period of time, and 25 μL of stop solution was added to stop the reaction. • 2.4 Data reading of Caliper EZ Reader II • 2.5 Calculation of percent inhibition and IC50 • 1) Percent conversion data were copied from the Caliper EZ Reader. • 2) Percent conversion was converted into percent inhibition data, wherein, max referred to percent conversion of the DMSO control, and min referred to percent conversion of the negative control without kinase activity. Percent inhibition=(max−conversion)/(max−min)*100. • 3) The IC50 value was fitted with XLFit excel add-in version 5.4.0.8: Fitting formula: Y=Bottom+(Top−Bottom)/(1+(IC50/X)^HillSlope).

PDGFRA = PDGFRA (Homo sapiens, UniProt P16234); experiment: PDGFRA in vitro biochemical kinase study (Caliper EZ Reader); conditions: FAM-labeled polypeptide, Caliper EZ Reader II; read-out: Enzymatic experiment PDGFRA IC50
Experimental: (§1) In the present invention, the inhibitory activity of compounds against the CSF-1R activity was determined by using CSF-1R ADP-Glo assay. The compound-mediated inhibition effect was achieved by inhibiting the production of ADP from consumption of ATP, and the activities of compounds were evaluated by using the ADP-Glo kit (Promega, cat. No. V9101). The specific experimental process was as follows: • 1. The kinase reaction performed in the present invention was carried out in a 384-well plate (Perkinelmer, cat. No. 6007290), and 3.95 nM of CSF-1R, 500 μM of ATP and 0.2 mg/mL of polypeptide (Poly (Glu4, Try1), Sigma, cat. No. P0275) were respectively weighed and added to each well: • 2. following reagents were then added to each well to reach the final reaction system: 40 mM Tris, pH 7.5, 20 mM MgCl2, 0.01% Triton X-100, 0.1 mg/mL BSA, 2.5 mM DTT and 0.1% DMSO; • 3. the reaction was conducted at 30° C. for 60 min; • 4. then an equal volume of stop solution (ADP-Glo) was added to the kinase reaction system; • 5. the mixed solution was incubated at 25° C. for 60 min, and the kinase reaction was then terminated; • 6. a two-fold volume of detection reagent was then added to each well; • 7. the mixed solution was incubated at 25° C. for 30 min; • 8. the compound IC50 value was measured by using a plate reader (Tecan, M1000) and a four-parameter curve was generated in Graphpad Prism. B. KIT/PDGFRA In Vitro Biochemical Kinase Study • 1. Preparation of 1-fold kinase buffer and stop solution • 1.1 1-fold kinase buffer: 50 mM HEPES, pH 7.5, 0.0015% Brij-35. • 1.2 stop solution: 100 mM HEPES, pH 7.5, 0.015% Brij-35, 0.2% Coating Reagent #3 50 mM EDTA • 2. Preparation of compound solution • 2.1 Dilution of compound solution • 1) The final concentration of the compound solution was 40 μM. and the concentration of the prepared stock solution was 50 times of the final concentration, i.e., 2 mM. • 2) 80 μL of 100% DMSO was added to the second well of the 96-well plate, then 20 μL of 10 mM compound solution was added, and thereby 2 mM compound solution was prepared, 60 μL of 100% DMSO was added to other wells, 20 μL of compound was taken from the second well, added to the third well and diluted by 4 times. […]

KIT = KIT (Homo sapiens, UniProt P10721); experiment: KIT in vitro biochemical kinase study (Caliper EZ Reader); conditions: FAM-labeled polypeptide, Caliper EZ Reader II; read-out: Enzymatic experiment KIT IC50
Experimental: as §1

[2] = absolute half maximal inhibitory concentration, read-out: Cytological experiment CSF-1R Absolute IC50
[3] = read-out: Cytological experiment CSF1R IC50

T1 sequence (P07333 20-972): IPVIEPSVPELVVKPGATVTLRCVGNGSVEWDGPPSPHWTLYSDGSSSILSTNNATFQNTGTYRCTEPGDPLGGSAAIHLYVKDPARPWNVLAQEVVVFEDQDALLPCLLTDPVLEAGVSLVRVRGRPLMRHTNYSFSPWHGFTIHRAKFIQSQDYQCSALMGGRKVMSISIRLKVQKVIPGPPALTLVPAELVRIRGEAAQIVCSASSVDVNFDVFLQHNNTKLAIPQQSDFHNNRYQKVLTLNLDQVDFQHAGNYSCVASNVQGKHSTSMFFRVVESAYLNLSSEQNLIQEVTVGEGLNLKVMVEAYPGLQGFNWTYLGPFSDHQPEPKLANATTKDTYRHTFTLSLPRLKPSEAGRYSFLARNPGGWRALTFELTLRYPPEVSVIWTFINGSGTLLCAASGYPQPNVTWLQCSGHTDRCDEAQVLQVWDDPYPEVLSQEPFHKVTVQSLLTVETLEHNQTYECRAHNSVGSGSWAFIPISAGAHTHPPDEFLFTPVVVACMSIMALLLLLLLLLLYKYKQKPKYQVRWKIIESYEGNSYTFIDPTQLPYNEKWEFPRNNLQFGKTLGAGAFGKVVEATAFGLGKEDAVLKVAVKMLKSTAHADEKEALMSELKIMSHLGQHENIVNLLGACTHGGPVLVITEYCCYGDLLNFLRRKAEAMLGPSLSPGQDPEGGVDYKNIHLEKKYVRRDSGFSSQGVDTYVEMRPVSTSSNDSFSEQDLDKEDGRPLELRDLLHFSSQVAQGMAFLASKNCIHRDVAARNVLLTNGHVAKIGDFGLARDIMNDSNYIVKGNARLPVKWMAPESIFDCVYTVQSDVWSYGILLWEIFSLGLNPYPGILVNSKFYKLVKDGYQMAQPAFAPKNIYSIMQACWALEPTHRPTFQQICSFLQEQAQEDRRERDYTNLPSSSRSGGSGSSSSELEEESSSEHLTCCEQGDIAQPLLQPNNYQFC
Sequence of PDGFRA (P16234 24-1089): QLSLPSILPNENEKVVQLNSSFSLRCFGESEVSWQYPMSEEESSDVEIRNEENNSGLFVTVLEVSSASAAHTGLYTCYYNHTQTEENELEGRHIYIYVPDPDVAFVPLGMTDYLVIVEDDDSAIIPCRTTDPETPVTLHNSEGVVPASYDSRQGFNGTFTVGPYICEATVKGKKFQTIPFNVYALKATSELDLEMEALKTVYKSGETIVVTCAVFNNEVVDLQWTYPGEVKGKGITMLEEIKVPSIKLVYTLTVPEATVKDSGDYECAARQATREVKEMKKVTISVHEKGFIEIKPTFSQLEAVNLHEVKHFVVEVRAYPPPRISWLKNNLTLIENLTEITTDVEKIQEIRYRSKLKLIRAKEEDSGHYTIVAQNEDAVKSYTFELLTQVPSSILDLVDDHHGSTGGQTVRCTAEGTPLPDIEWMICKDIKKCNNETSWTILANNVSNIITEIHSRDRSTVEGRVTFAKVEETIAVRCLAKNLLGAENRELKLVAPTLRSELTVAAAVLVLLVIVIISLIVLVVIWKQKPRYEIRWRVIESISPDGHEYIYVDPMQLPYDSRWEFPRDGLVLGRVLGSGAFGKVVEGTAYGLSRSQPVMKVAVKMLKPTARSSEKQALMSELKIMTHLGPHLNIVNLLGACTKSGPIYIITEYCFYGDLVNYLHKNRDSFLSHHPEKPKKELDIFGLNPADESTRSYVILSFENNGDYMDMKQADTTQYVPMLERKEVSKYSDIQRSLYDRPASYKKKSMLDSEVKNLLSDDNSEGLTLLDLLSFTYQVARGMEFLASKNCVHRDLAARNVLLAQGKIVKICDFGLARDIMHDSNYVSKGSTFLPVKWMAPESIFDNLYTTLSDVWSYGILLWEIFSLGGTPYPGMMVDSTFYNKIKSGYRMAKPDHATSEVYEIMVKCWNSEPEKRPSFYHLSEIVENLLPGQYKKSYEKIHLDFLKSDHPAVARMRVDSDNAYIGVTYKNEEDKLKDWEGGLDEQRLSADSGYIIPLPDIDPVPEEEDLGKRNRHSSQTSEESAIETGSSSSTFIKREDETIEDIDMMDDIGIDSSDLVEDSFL
Sequence of KIT (P10721 26-976): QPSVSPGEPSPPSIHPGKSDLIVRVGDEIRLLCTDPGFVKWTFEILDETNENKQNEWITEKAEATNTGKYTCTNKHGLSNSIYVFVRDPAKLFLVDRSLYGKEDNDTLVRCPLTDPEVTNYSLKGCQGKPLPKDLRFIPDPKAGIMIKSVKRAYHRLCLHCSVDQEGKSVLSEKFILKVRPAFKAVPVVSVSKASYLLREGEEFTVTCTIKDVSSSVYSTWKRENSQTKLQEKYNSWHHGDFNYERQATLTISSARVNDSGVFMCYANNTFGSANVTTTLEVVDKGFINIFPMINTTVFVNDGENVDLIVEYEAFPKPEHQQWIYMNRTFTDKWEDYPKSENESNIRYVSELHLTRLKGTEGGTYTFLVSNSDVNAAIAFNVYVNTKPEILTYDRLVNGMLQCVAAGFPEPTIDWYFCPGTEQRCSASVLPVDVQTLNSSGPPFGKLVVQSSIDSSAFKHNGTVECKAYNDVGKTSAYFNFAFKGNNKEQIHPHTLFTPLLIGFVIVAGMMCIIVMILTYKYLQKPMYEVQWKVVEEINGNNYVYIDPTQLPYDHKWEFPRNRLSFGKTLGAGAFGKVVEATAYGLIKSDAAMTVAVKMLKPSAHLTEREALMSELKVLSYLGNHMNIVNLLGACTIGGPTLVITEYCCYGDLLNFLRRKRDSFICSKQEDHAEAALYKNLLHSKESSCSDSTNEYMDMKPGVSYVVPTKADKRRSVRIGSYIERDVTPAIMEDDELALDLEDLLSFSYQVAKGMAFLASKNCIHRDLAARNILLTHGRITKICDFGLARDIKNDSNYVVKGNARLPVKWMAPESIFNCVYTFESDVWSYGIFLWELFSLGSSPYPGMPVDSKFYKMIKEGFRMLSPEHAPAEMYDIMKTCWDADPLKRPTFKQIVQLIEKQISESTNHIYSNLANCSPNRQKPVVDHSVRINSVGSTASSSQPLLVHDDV

| IC50 [1, 2] [nM] | IC50 [1, 3] [nM] | IC50 (CSF-1R) [nM] | IC50 (PDGFRA) [nM] | IC50 (KIT) [nM] | IC50 ([1]; Lymphocyte, absolute half maximal inhibitory concentration, read-out: Cytological experiment CSF-1R Absolute IC50) [nM] | SMILES |
| --- | --- | --- | --- | --- | --- | --- |
| 39.1 | 48 | 43.5 | – | – | – | COc1cnc2[nH]cc(Cc3ccc(-c4cnc5n(c4=O)CCCN5C)nc3C)c2c1 [Example 22, 3-(5-((5-methoxy-1H-pyrrolo[2,3-b]pyridin-3-yl)methyl)-6-methylpyridin-2-yl)-9-methyl-6,7,8,9-tetrahydro-4H-pyrimido[1,2-a]pyrimidin-4-one] |
| 47.9 | 77.9 | 45.9 | 9270 | 222 | – | Cc1nc(-c2cnc(NC(C)C)[nH]c2=O)ccc1Cc1c[nH]c2ncc(F)cc12 [Example 5, 5-(5-((5-fluoro-1H-pyrrolo[2,3-b]pyridin-3-yl)methyl)-6-methylpyridin-2-yl)-2-(isopropylamino)pyrimidin-4(3H)-one] |
| 131 | 140 | 38.9 | – | – | – | Cc1nc(-c2cnc3n(c2=O)CCCN3C)ccc1Cc1c[nH]c2ncc(O)cc12 [Example 23] |
| 4.9 | 5 | 4.34 | – | – | – | Cc1nc(-c2cnc3n(c2=O)CCCN3C)ccc1Cc1c[nH]c2ncc(-c3cnn(C)c3)cc12 [Example 18, 9-methyl-3-(6-methyl-5-((5-(1-methyl-1H-pyrazol-4-yl)-1H-pyrrolo[2,3-b]pyridin-3-yl)methyl)pyridin-2-yl)-6,7,8,9-tetrahydro-4H-pyrimido[1,2-a]pyrimidin-4-one] |
| 38.6 | 46.8 | 65.6 | – | – | – | Cc1nc(-c2cnc3n(c2=O)CCCN3C)ccc1Cc1c[nH]c2ncc(Cl)cc12 [Example 13, 3-(5-((5-chloro-1H-pyrrolo[2,3-b]pyridin-3-yl)methyl)-6-methylpyridin-2-yl)-9-methyl-6,7,8,9-tetrahydro-4H-pyrimido[1,2-a]pyrimidin-4-one] |
| 71.8 | 68.6 | 45.6 | – | – | – | CCN1CCCn2c1ncc(-c1ccc(Cc3c[nH]c4ncc(Cl)cc34)c(C)n1)c2=O [Example 16, 3-(5-((5-chloro-1H-pyrrolo[2,3-b]pyridin-3-yl)methyl)-6-methylpyridin-2-yl)-9-ethyl-6,7,8,9-tetrahydro-4H-pyrimido[1,2-a]pyrimidin-4-one] |
| 45.6 | 54 | 96.3 | – | – | – | Cc1cnc2[nH]cc(Cc3ccc(-c4cnc5n(c4=O)CCCN5C)nc3C)c2c1 [Example 21, 9-methyl-3-(6-methyl-5-((5-methyl-1H-pyrrolo[2,3-b]pyridin-3-yl)methyl)pyridin-2-yl)-6,7,8,9-tetrahydro-4H-pyrimido[1,2-a]pyrimidin-4-one] |
| 106 | 92.2 | 46.1 | – | – | – | Cc1nc(-c2cnc3n(c2=O)CCCN3C)ccc1Cc1c[nH]c2ncc(F)cc12 [Example 20, 3-(5-((5-fluoro-1H-pyrrolo[2,3-b]pyridin-3-yl)methyl)-6-methylpyridin-2-yl)-9-methyl-6,7,8,9-tetrahydro-4H-pyrimido[1,2-a]pyrimidin-4-one] |
| 105 | 96.7 | 55.2 | – | – | – | Cc1nc(-c2cnc3n(c2=O)CCCN3C)ccc1Cc1c[nH]c2ncccc12 [Example 14, 3-(5-((1H-pyrrolo[2,3-b]pyridin-3-yl)methyl)-6-methylpyridin-2-yl)-9-methyl-6,7,8,9-tetrahydro-4H-pyrimido[1,2-a]pyrimidin-4-one] |
| – | 6.3 | 5.35 | – | – | 5 | CCN1CCCn2c1ncc(-c1ccc(Cc3c[nH]c4ncc(-c5cnn(C)c5)cc34)c(C)n1)c2=O [Example 17] |
| 83.3 | 91.3 | 49.5 | – | – | – | Cc1nc(-c2cnc3n(c2=O)CCC(C)N3C)ccc1Cc1c[nH]c2ncc(Cl)cc12 (stereo not shown) [Example 15, 3-(5-((5-chloro-1H-pyrrolo[2,3-b]pyridin-3-yl)methyl)-6-methylpyridin-2-yl)-8,9-dimethyl-6,7,8,9-tetrahydro-4H-pyrimido[1,2-a]pyrimidin-4-one] |
| 33.7 | 39.7 | 36.7 | 998 | 50.8 | – | Cc1nc(-c2cnc(NC(C)C)n(C)c2=O)ccc1Cc1c[nH]c2ncccc12 [Example 7, 5-(5-((1H-pyrrolo[2,3-b]pyridin-3-yl)methyl)-6-methylpyridin-2-yl)-2-(isopropylamino)-3-methylpyrimidin-4(3H)-one] |
